The results in this text go back to US9249102B2 (priority 2012, dated 2016).

Where two headings read alike, the source gives them in different places.

For one experiment, the system named is Haemonchus contortus. Description: Method A: Haemonchus contortus L1 larvae, microtitre plate screen. The following applies: 96 h, read-out: motility inhibition.
The subject of experiment [1] is microfilaria of Dirofilaria immitis. Description: Method F: microfilaria of Dirofilaria immitis, survival at 24 hours.
Setting [2] is: survival of microfilaria at 24 hours.

A word on the inhibition: it is the drop in the measured response relative to a control, in per cent. What is called EC50 is the midpoint of the concentration-response curve. A lower EC50 goes with an effect from little substance. Turning to `O=C(CO[C@H]1CC[C@H](Nc2ccc([N+](=O)[O-])c(C(F)(F)F)c2)CC1)N1CCN(c2ccc3cc(F)ccc3c2)CC1` [Compound 17, 1-[4-(6-fluoronaphthalen-2-yl)piperazin-1-yl]-2-[(4-[[4-nitro-3-(trifluoromethyl)phenyl]amino]cyclohexyl)oxy]ethan-1-one], the inhibition at 5 µg/mL in the experiment on Haemonchus contortus is at least 90%. Moreover, the EC50 in experiment [1] (setting [2]) is below 1 µg/mL.
With `O=C(NCCOc1ccc(Nc2ccc([N+](=O)[O-])c(C(F)(F)F)c2)cc1)C(=O)NCC1Cc2cc(F)ccc2O1` (stereo not shown) [Compound 225, N^1-((5-fluoro-2,3-dihydrobenzofuran-2-yl)methyl)-N^2-(2-(4-(4-nitro-3-(trifluoromethyl)phenylamino)phenoxy)ethyl)oxalamide], in the experiment with Haemonchus contortus, the inhibition at 5 µg/mL was at least 90%. In experiment [1] (setting [2]), the EC50 is below 1 µg/mL.
Taken in the same sequence, the figures for `O=C(NCCO[C@H]1CC[C@H](Nc2ccc([N+](=O)[O-])c(C(F)(F)F)c2)CC1)C(=O)NCC1Cc2cc(Cl)ccc2O1` (stereo partly shown) [Compound 218, N^1-[(5-chloro-2,3-dihydro-1-benzofuran-2-yl)methyl]-N^2-[2-[(4-[[4-nitro-3-(trifluoromethyl)phenyl]amino]cyclohexyl)oxy]ethyl]ethanediamide] were at least 90% and below 1 µg/mL.
Taken in the same sequence, the figures for `N#Cc1ccc(NC2CCN(C(=O)CCCN3CCN(c4ccc5cc(F)ccc5c4)CC3)CC2)cc1C(F)(F)F` [Compound 18, 4-[(1-[4-[4-(6-fluoronaphthalen-2-yl)piperazin-1-yl]butanoyl]-piperidin-4-yl)amino]-2-(trifluoromethyl)benzonitrile] were at least 90% and below 1 µg/mL.
Regarding `O=C(COc1ccc(Nc2ccc([N+](=O)[O-])c(C(F)(F)F)c2)cc1)N1CCN(Cc2cc3cc(Cl)ccc3o2)CC1` [Compound 184, 1-[4-[(5-chloro-1-benzofuran-2-yl)methyl]piperazin-1-yl]-2-(4-[[4-nitro-3-(trifluoromethyl)phenyl]amino]phenoxy)ethan-1-one], in the experiment on Haemonchus contortus, the inhibition at 5 µg/mL is at least 90%. Besides, the EC50 in experiment [1] (setting [2]) is below 1 µg/mL.
For `O=C(CO[C@H]1CC[C@H](Nc2ccc([N+](=O)[O-])c(C(F)(F)F)c2)CC1)N1CCN(c2ccc3ccccc3n2)CC1` [Compound 88, 2-((1R,4R)-4-(4-nitro-3-(trifluoromethyl)phenylamino)cyclohexyloxy)-1-(4-(quinolin-2-yl)piperazin-1-yl)ethanone], the inhibition at 5 µg/mL in the experiment on Haemonchus contortus was at least 90%. Also, in experiment [1] (setting [2]), the EC50 was below 5 µg/mL.
Taken in the same sequence, the figures for `O=C(CO[C@H]1CC[C@H](Nc2ccc([N+](=O)[O-])c(C(F)(F)F)c2)CC1)N1CCN(C(=O)C2Cc3cc(Cl)ccc3O2)CC1` (stereo partly shown) [Compound 79, 1-[4-[(5-chloro-2,3-dihydro-1-benzofuran-2-yl)carbonyl]piperazin-1-yl]-2-[(4-[[4-nitro-3-(trifluoromethyl)phenyl]amino]cyclohexyl)oxy]ethan-1-one] were at least 90% and below 5 µg/mL.
On to `O=C(NCCO[C@H]1CC[C@H](Nc2ccc([N+](=O)[O-])c(C(F)(F)F)c2)CC1)C(=O)NCc1cc2cc(C(F)(F)F)ccc2o1` [Compound 223, N^1-(2-(4-(4-nitro-3-(trifluoromethyl)phenylamino)cyclohexyloxy)ethyl)-N^2-((5-(trifluoromethyl)benzofuran-2-yl)methyl)oxalamide], for which, in the experiment on Haemonchus contortus, the inhibition at 5 µg/mL was at least 90%. The EC50 in experiment [1] is below 0.1 µg/mL.
For `O=C(CO[C@H]1CC[C@H](Nc2ccc([N+](=O)[O-])c(C(F)(F)F)c2)CC1)N1CCN(c2ccc3cc(Cl)ccc3c2)CC1` [Compound 233, 1-[4-(6-chloro-2-naphthyl)piperazin-1-yl]-2-[4-[4-nitro-3-(trifluoromethyl)anilino]cyclohexoxy]ethanone], the inhibition at 5 µg/mL in the experiment on Haemonchus contortus was at least 90%. This compound displayed an EC50 in experiment [1] (setting [2]) below 1 µg/mL.
Taken in the same sequence, the figures for `CC(c1oc2ccc(C(F)(F)F)cc2c1Cl)N1CCN(C(=O)CO[C@H]2CC[C@H](Nc3ccc([N+](=O)[O-])c(C(F)(F)F)c3)CC2)CC1` (stereo partly shown) [Compound 255, 2-1-(4-[1-[3-chloro-5-(trifluoromethyl)-1-benzofuran-2-yl]ethyl]piperazin-1-yl)-2-[[4-[[4-nitro-3-(trifluoromethyl)phenyl]amino]cyclohexyl]oxy]ethan-1-one] were at least 90% and below 1 µg/mL.
Take `CC(O[C@H]1CC[C@H](Nc2ccc([N+](=O)[O-])c(C(F)(F)F)c2)CC1)C(=O)N1CCN(c2ccc3cc(C(F)(F)F)ccc3n2)CC1` (stereo partly shown) [Compound 249, 2-[[-4-[[4-nitro-3-(trifluoromethyl)phenyl]amino]cyclohexyl]oxy]-1-[4-[6-(trifluoromethyl)quinolin-2-yl]piperazin-1-yl]propan-1-one]: the inhibition at 5 µg/mL in the experiment on Haemonchus contortus was at least 90%. Besides, in experiment [1], the EC50 is below 1 µg/mL.
As for `Cc1cc(N2CCN(C(=O)CO[C@H]3CC[C@H](Nc4ccc([N+](=O)[O-])c(C(F)(F)F)c4)CC3)CC2)nc2ccccc12` [Compound 98, 1-[4-(4-methylquinolin-2-yl)piperazin-1-yl]-2-[(4-[[4-nitro-3-(trifluoromethyl)phenyl]amino]cyclohexyl)oxy]ethan-1-one], the inhibition at 5 µg/mL with Haemonchus contortus was at least 90%. Also, the EC50 in experiment [1] (setting [2]) is below 5 µg/mL.
Take `O=C(COc1ccc(Nc2ccc([N+](=O)[O-])c(C(F)(F)F)c2)cc1)N1CCN(C(=O)c2cc3cc(Cl)ccc3o2)CC1` [Compound 189, 1-[4-[(5-chloro-1-benzofuran-2-yl)carbonyl]piperazin-1-yl]-2-(4-[[4-nitro-3-(trifluoromethyl)phenyl]amino]phenoxy)ethan-1-one]: in the experiment on Haemonchus contortus, the inhibition at 5 µg/mL is at least 90%. The compound further yielded an EC50 in experiment [1] (setting [2]) below 5 µg/mL.
For `O=C(CO[C@H]1CC[C@H](Nc2ccc([N+](=O)[O-])c(C(F)(F)F)c2)CC1)N1CCN(C(=O)C2Cc3cc(C(F)(F)F)ccc3O2)CC1` (stereo partly shown) [Compound 81, 2-[4-(4-nitro-3-trifluoromethyl-phenylamino)-cyclohexyloxy]-1-[4-(5-trifluoromethyl-2,3-dihydro-benzofuran-2-carbonyl)-piperazin-1-yl]-ethanone], the inhibition at 5 µg/mL in the experiment on Haemonchus contortus was at least 90%. In experiment [1] (setting [2]), this compound gave an EC50 below 1 µg/mL.
Take `N#Cc1ccc(N[C@H]2CC[C@H](OCC(=O)N3CCN(Cc4oc5ccc(C(F)(F)F)cc5c4Cl)CC3)CC2)cc1C(F)(F)F` [Compound 305, 4-(4-{2-[4-(3-chloro-5-trifluoromethyl-benzofuran-2-ylmethyl)-piperazin-1-yl]-2-oxo-ethoxy}-cyclohexylamino)-2-trifluoromethyl-benzonitrile]: in the experiment with Haemonchus contortus, the inhibition at 5 µg/mL was at least 90%. Also, the EC50 in experiment [1] (setting [2]) was below 0.1 µg/mL.
Taken in the same sequence, the figures for `O=C(NCCO[C@H]1CC[C@H](Nc2ccc([N+](=O)[O-])c(C(F)(F)F)c2)CC1)C(=O)NCc1cc2ccccc2o1` [Compound 220, N^1-(benzofuran-2-ylmethyl)-N^2-(2-(4-(4-nitro-3-(trifluoromethyl)phenylamino)cyclohexyloxy)ethyl)oxalamide] were at least 90% and below 1 µg/mL.
Taken in the same sequence, the figures for `Cc1cc(N2CCN(C(=O)CO[C@H]3CC[C@H](Nc4ccc([N+](=O)[O-])c(C(F)(F)F)c4)CC3)CC2)nc2ccc(Br)cc12` [Compound 277, 1-[4-(6-bromo-4-methyl-2-quinolyl)piperazin-1-yl]-2-[4-[4-nitro-3-(trifluoromethyl)anilino]cyclohexoxy]ethanone] were at least 90% and below 5 µg/mL.
Taken in the same sequence, the figures for `O=C(COc1ccc(Nc2ccc([N+](=O)[O-])c(C(F)(F)F)c2)cc1)N1CCN(Cc2cc3cc(C(F)(F)F)ccc3o2)CC1` [Compound 188, 2-(4-[[4-nitro-3-(trifluoromethyl)phenyl]amino]phenoxy)-1-(4-[[5-(trifluoromethyl)-1-benzofuran-2-yl]methyl]piperazin-1-yl)ethan-1-one] were at least 90% and below 5 µg/mL.
For `CC(CN1CCN(c2ccc3cc(C(F)(F)F)ccc3n2)CC1)C(=O)N1CCC(Nc2ccc([N+](=O)[O-])c(C(F)(F)F)c2)CC1` (stereo not shown) [Compound 92, 2-methyl-1-(4-(4-nitro-3-(trifluoromethyl)phenylamino)piperidin-1-yl)-3-(4-(6-(trifluoromethyl)quinolin-2-yl)piperazin-1-yl)propan-1-one], in the experiment with Haemonchus contortus, the inhibition at 5 µg/mL is at least 90%. The same compound showed an EC50 in experiment [1] (setting [2]) below 1 µg/mL.
Turning to `O=[N+]([O-])c1ccc(N[C@H]2CC[C@H](OCC(=S)N3CCN(CC4Cc5cc(F)ccc5O4)CC3)CC2)cc1C(F)(F)F` (stereo partly shown) [Compound 265, 1-[4-(5-fluoro-2,3-dihydro-benzofuran-2-ylmethyl)-piperazin-1-yl]-2-[4-(4-nitro-3-trifluoromethyl-phenylamino)-cyclohexyloxy]-ethanethione], in the experiment on Haemonchus contortus, the inhibition at 5 µg/mL is at least 90%. In experiment [1] (setting [2]), this compound came in with an EC50 below 1 µg/mL.
With `C[C@@H]1CN(CC2Cc3cc(F)ccc3O2)[C@@H](C)CN1C(=O)CO[C@H]1CC[C@H](Nc2ccc(C#N)c(C(F)(F)F)c2)CC1` (stereo partly drawn) [Compound 308, 4-(4-{2-[(2R,5S)-4-(5-fluoro-2,3-dihydro-benzofuran-2-ylmethyl)-2,5-dimethyl-piperazin-1-yl]-2-oxo-ethoxy}-cyclohexylamino)-2-trifluoromethyl-benzonitrile], the inhibition at 5 µg/mL in the experiment with Haemonchus contortus was at least 90%. In experiment [1], this compound registered a half-maximal effective concentration (EC50) below 0.1 µg/mL.
With `O=C(NCCO[C@H]1CC[C@H](Nc2ccc([N+](=O)[O-])c(C(F)(F)F)c2)CC1)C(=O)NCC1Cc2cc(C(F)(F)F)ccc2O1` (stereo partly shown) [Compound 219, N^1-[2-[(4-[[4-nitro-3-(trifluoromethyl)phenyl]amino]cyclohexyl)oxy]ethyl]-N^2-[[5-(trifluoromethyl)-2,3-dihydro-1-benzofuran-2-yl]methyl]ethanediamide], the inhibition at 5 µg/mL with Haemonchus contortus is at least 90%. Also, the EC50 in experiment [1] (setting [2]) was below 1 µg/mL.
As for `O=C(CO[C@H]1CC[C@H](Nc2ccc([N+](=O)[O-])c(C(F)(F)F)c2)CC1)N1CCN(C(=O)c2cc3cc(F)ccc3o2)CC1` [Compound 182, 1-[4-[(5-fluoro-1-benzofuran-2-yl)carbonyl]piperazin-1-yl]-2-[(4-[[4-nitro-3-(trifluoromethyl)phenyl]amino]cyclohexyl)oxy]ethan-1-one], the inhibition at 5 µg/mL in the experiment on Haemonchus contortus was at least 90%. This compound also returned an EC50 in experiment [1] (setting [2]) below 5 µg/mL.
